From patent US9487479B2, “Small molecule inhibitors of N-terminus activation of the androgen receptor” (The University of British Columbia, priority 2008, dated 2016)

Tests used:
PSA mRNA = assay: Androgen-induced PSA mRNA levels in LNCaP cells (qRT-PCR); type: cell-based, human; settings: R1881 1 nM, 16 hours; for inhibition of androgen-induced levels of PSA mRNA: 10 μg/ml, 1 hour pretreatment
Protocol: Levels of PSA mRNA were measured by quantitative real-time (qRT)-PCR and normalized to levels of GAPDH mRNA (housekeeping gene). White bar: no R1881. Black bars: R1881 (1 nM). MNE: mean normalized expression. DMSO (no R1881) was arbitrarily set at 1.0 for each individual experiment. Bars represent the mean±SE from 3 separate experiments using triplicate technical samples from each experiment.
PSA is an androgen-regulated gene containing several well-characterized androgen response elements (AREs) in the enhancer and promoter regions. Levels of PSA mRNA are induced by androgen by a mechanism dependent androgen receptor. To test if sintokamides would also block endogenous gene expression induced by androgen, levels of PSA mRNA were measured in response to the synthetic androgen R1881.

androgen receptor (AR) = target: T1, androgen receptor (AR) (Homo sapiens, UniProt P10275, T878A); assay: PSA (6.1 kb)-luciferase reporter assay in LNCaP cells; type: cell-based; settings: R1881 1 nM, 24 hours; for inhibition of R1881 induction of PSA (6.1)-luciferase: 1 hour pretreatment
T1 construct: endogenous in cells; host or cells: LNCaP human prostate cancer cells
T1 sequence (P10275 1-920 T878A): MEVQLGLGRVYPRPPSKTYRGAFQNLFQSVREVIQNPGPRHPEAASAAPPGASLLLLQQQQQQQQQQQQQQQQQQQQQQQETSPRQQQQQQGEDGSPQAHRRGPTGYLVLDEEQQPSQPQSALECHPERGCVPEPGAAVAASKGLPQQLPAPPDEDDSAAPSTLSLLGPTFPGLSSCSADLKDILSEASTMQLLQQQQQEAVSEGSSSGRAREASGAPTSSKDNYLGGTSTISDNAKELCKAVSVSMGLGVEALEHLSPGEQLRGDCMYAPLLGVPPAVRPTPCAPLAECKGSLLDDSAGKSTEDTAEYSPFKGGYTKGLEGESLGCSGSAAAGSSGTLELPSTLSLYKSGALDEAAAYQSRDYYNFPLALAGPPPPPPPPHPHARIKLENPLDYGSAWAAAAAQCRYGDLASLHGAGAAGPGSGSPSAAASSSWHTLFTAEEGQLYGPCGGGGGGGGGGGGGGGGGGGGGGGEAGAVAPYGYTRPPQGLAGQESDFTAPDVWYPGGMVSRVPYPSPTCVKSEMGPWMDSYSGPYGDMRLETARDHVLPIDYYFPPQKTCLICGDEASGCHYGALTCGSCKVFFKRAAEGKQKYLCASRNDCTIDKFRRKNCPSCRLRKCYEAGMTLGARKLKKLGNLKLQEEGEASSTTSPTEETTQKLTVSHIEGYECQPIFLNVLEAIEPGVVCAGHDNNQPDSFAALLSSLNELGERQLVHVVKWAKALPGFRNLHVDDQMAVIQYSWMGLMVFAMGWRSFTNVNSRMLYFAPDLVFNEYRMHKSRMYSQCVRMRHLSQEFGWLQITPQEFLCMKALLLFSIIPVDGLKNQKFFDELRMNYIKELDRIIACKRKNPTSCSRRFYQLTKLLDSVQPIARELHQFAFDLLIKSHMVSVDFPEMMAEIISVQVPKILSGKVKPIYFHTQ
Protocol: White bars represent no steroid (ethanol control). Wherein glucocorticoid receptor (GR) and progesterone receptor (PR).
The cells were harvested 24 hours later and analyzed for luciferase activity. The data is normalized to protein that was measured using Bradford assay.
Sequence similarities of amino acids in the AR with related human steroid receptors (glucocorticoid receptor (GR) and progesterone receptor (PR)) are significant in some domains such as the DNA-binding-domain (DBD). Although the AR-NTD shares less than 15% homology with the PR and GR, these receptors do interact with some of the same proteins such as SRC-1 (steroid receptor coactivator-1). […] Cells were co-transfected with expression plasmids for full-length hGR and PRβ and the relative reporter (i.e., pGR-Luc or PRE-E1b-Luc reporters). Cells were then treated with ethanol vehicle, dexamethasone (GR), 4-pregnene-3,20 dione (progesterone) (PR) followed by measurement of luciferase activity.
Activation of the endogenous AR was measured in LNCaP human prostate cancer cells by measuring an androgen-responsive reporter containing androgen response elements (AREs). The PSA (6.1 kb)-luciferase reporter gene construct contains several well-characterized AREs and is induced by androgen.

LNCaP cells = assay: Androgen-dependent proliferation of LNCaP cells (BrdU incorporation); type: cell-based, human; settings: R1881 0.1 nM, 3 days
Protocol: BrdU incorporation was measured 3 days later to indicate changes in proliferation in response to androgen (see FIG. 3B).

| Molecule | inhibition of androgen-induced levels of PSA mRNA (PSA mRNA) | inhibition of R1881 induction of PSA (6.1)-luciferase (androgen receptor (AR); 5 μg/ml) | other results |
| --- | --- | --- | --- |
| Dysamide A [CB3.0] | inhibit | some activity | inhibition of R1881 induction of PSA (6.1)-luciferase (androgen receptor (AR); 5 μg/ml, listed as Dysimide A): inhibition |
| CCC(=O)N[C@H](C[C@H](C)C(Cl)(Cl)Cl)C(=O)N1C(=O)C=C(OC)[C@@H]1CC(C)C [CB2.1, Sintokamide E] | – | inhibition | – |
| CCC(=O)N[C@H](C[C@H](C)C(Cl)Cl)C(=O)N1C(=O)C=C(OC)[C@@H]1C[C@H](C)C(Cl)Cl [CB1.1, Sintokamide C] | – | inhibition | – |
| CCC(=O)N[C@H](C[C@H](C)C(Cl)(Cl)Cl)C(=O)N1C(=O)C=C(OC)[C@@H]1C[C@H](C)C(Cl)(Cl)Cl [CB4.0, Sintokamide B] | inhibit | inhibition | – |
| C[C@]1(O)CC[C@H]2[C@@H]3CCC4=CC(=O)CCC4=C3C=C[C@@]21C [Sintokamide R1881, R1881, reference compound] | – | – | induction of levels of PSA mRNA (PSA mRNA): at least 3 fold; proliferation over control (BrdU incorporation) (LNCaP cells): increased proliferation over control; induction of PSA-luciferase activity (androgen receptor (AR)): approximately 6 fold |
| CCC(=O)N[C@H](CC(C)C)C(=O)N1C(=O)C=C(OC)[C@@H]1CC(C)C [non-chlorinated sintokamide, N—((R)-1-((S)-2-isobutyl-3-methoxy-5-oxo-2,5-dihydro-1H-pyrrol-1-yl)-4-methyl-1-oxopentan-2-yl)propionamide] | – | – | inhibition of R1881 induction of PSA (6.1)-luciferase (androgen receptor (AR); 10 μM): some activity |
